Results taken from BindingDB's records for doi:10.1016/S0960-894X(01)80292-4 (1994).

What was measured:
[1] = target: T1, Human immunodeficiency virus type 1 protease (Human immunodeficiency virus 1, UniProt Q72874); test: (§1) Inhibitory activity was evaluated against HIV-1 protease
[2] = target: T1, Human immunodeficiency virus type 1 protease; test: as §1; remark: listed apart in the source

OC1N=C(Cc2ccccc2)P(O)(O)=C(Cc2ccccc2)N1 (configuration not stated) [4,6-Dibenzyl-5-hydroxy-5-oxo-5lambda*5*-[1,3,5]diazaphosphinan-2-one]
IC50 [1]: > 100 µM
IC50 [2]: > 100 µM
